From patent US6825217B2, “Carbinols for the treatment of neuropathic dysfunction” (Endo Pharmaceuticals, Inc., priority 2001, dated 2004)

How the values were obtained:
[1] = Five-day Oral Dose Escalation in Beagle Dogs; type: in vivo, Beagle dog
[2] = target: T1, kappa receptor sites in the brain (Homo sapiens, UniProt P41145); test: Activity at kappa receptor sites in the brain; type: binding
T1 construct: mu, kappa, delta or sigma receptor sites in the brain; from tissue

[3] = Chung model (tactile allodynia); type: in vivo, rat
Description: This model for neuropathic pain was performed on rats using the surgical procedure described by Kim and Chung (1992) to induce an allodynic state. Briefly, the left L-5 and L-6 spinal nerves were isolated adjacent to the vertebral column and ligated with 6-0 silk suture distal to the dorsal root ganglion under isoflurane anesthesia. This model allows for spinal cord structural reorganization and growth of low threshold mechnoreceptor fibers from the spinal cord with synaptic connections and rewiring of the dorsal horn. This leads to spontaneous firing of invading sympathetic nerves and upregulation of receptors and voltage-dependent channels; i.e. mimics the development of allodynia (nociceptive response to a previously neutral stimulus). The rats were allowed a minimum of 7-days postoperative recovery period before testing.
To assess tactile thresholds in the Chung model, rats were placed in a clear plastic, wire mesh-bottomed cage, divided into individual compartments. Animals were allowed to acclimate and then baseline thresholds were assessed prior to drug treatment. To assess the 50% mechanical threshold for paw withdrawal, von Frey hairs were applied to the plantar mid-hindpaw, avoiding the tori (footpads). The eight von Frey hairs used are designated by [log (10*force required to bend hair, mg)] and range from 0.4-15.1 grams (#'s 3.61-5.18). Each hair was pressed perpendicularly against the paw with sufficient force to cause slight bending, and held for approximately 6-8 seconds. A positive response was noted if the paw was sharply withdrawn. Flinching immediately upon removal of the hair was also considered a positive response. Absence of a response (“−”) was cause to present the next consecutive stronger stimulus; a positive response (“+”) was cause to present the next weaker stimulus. Stimuli were presented successively until either six data points were collected, or the maximum or minimum stimulus was reached. If a minimum stimulus was reached and positive responses still occurred, the threshold was assigned an arbitrary minimum value of 0.25 grams; if a maximum stimulus was presented and no response occurred, a maximum threshold value of 15 grams was assigned. If a change in response occurs, either “−” to “+” or “+” to “−”, causing a change in the direction of stimulus presentation from descending to ascending or vice-versa, four additional data points were collected subsequent to the change.

Rat tooth pulp = type: in vivo; details: unmarked entry of animal model table
[4] = target: T2, rat synaptosomal NE Reuptake (Rattus norvegicus, UniProt Q63380); test: Norepinephrine reuptake assay (rat synaptosomal NE uptake); type: biochemical
T2 construct: rat synaptosomal 5-HT and NE Reuptake; from tissue; host or cells: rat synaptosomes (rat brain preparations)

[5] = Anti-inflammatory effects in vivo
Rat Randall-Selitto = type: in vivo; design: key to activity in rat Randell-Selitto model: *: Inactive; Φ: Weakly active
Rat PQW = type: in vivo
Description: The anti-phenylquinone writhing (PQW) test modified from the methods of Siegmund et al. (Proc. Soc. Exp. Biol. Med. 95: 729-731, 1957) and Blumberg et al. (Proc. Exp. Biol. Med. 118: 763-767, 1965) was used to assess the relief from the simulated symptoms of neuropathic pain in mice. Male CF1 mice (Charles River Breeding Laboratories, Wilmington, Mass.), fasted for 16-22 hours and weighing 18-23 g, were injected with randomized and coded doses of test compounds, then challenged with 1.25 mg/kg i.p. phenyl-p-benzoquinone (phenylquinone) 5 minutes prior to the specified observation time. The phenylquinone solution (0.1 mg/ml in 5% aqueous ethanol) was prepared daily and stored in foil-wrapped amber bottles to limit degradation. Mice were observed 10 minutes for the presence or absence of the characteristic abdominal constriction and stretching response beginning 30 minutes after injection of the test compound. Activity was calculated as the percentage of mice failing to respond to the phenylquinone challenge dose. […] Median effective doses (ED50's) and 95% confidence limits were determined numerically by the methods of Thompson (Bacteriological Rev. 11: 115-145, 1947), and Litchfield and Wilcoxon (J. Pharmacol. Exp. Ther. 96: 99-113, 1949).

Safety pharmacology, dog = type: in vivo
[6] = system: sigma receptor sites in the brain; test: Activity at sigma receptor sites in the brain; type: binding
Bacterial Mutagenicity = test: In Vitro Bacterial Mutagenicity: Modified Ames Test; type: cell-based
[7] = Fourteen-day Oral Dose Range Finding Study in Rats; type: in vivo, rat
[8] = Side effects at effective doses; type: in vivo; details: at effective doses for neuropathic pain
[9] = target: T3, mu receptor sites in the brain (Homo sapiens, UniProt P35372); test: Activity at mu receptor sites in the brain; type: binding
T3 construct: mu, kappa, delta or sigma receptor sites in the brain; from tissue

prostaglandin synthesase = test: Prostaglandin synthesase inhibition; type: biochemical
Rat Tail-Flick = type: in vivo; design: key to activity in rat Tail Flick model: *: Inactive; Φ: Weakly active
[10] = Studies in animals: addictive and respiratory depressant properties; type: in vivo; details: versus narcotic-related analgesics
Monkey tail dip = type: in vivo; details: unmarked entry of animal model table
uptake of dopamine = target: T4, uptake of dopamine (Rattus norvegicus, UniProt P23977); test: Dopamine uptake in rat brain preparations; type: biochemical; details: printed as 'and/or dopamine'
T4 construct: dopamine in rat brain preparations; from tissue; host or cells: rat brain preparations

[11] = Abuse assay (self-administration); type: in vivo, Cynomologous monkeys
Description: Cynomologous monkeys are trained to self-administer drugs by pressing on a lever a certain number of times. The number of times an animal will press the lever before extinquishing in an attempt to self-administer drug is calculated as their fixed ratio (FR). For example, cynomologous monkeys that are trained to self-administer codeine will press the lever 300 times (FR 300) and or 10,000 times (FR 10,000) to obtain a dose of codeine. Cynomologous monkeys were trained to self-administer the compounds of the present invention.

T2 sequence (Q63380 1-617): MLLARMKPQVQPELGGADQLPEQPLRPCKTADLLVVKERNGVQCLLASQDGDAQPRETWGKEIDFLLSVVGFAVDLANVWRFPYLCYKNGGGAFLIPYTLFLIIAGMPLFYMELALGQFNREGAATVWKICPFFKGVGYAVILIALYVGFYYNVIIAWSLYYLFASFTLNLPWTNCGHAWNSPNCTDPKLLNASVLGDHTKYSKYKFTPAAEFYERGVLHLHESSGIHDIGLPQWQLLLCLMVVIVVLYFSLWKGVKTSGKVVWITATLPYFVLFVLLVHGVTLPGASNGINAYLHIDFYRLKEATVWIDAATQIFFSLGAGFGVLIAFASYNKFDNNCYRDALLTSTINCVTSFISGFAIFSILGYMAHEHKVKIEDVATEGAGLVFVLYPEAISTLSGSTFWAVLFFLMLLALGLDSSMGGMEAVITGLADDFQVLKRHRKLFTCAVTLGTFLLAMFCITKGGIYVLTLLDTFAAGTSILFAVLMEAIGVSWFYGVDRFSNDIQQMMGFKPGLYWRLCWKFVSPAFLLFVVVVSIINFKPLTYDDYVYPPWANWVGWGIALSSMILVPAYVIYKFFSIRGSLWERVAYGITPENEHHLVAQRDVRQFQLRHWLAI
T4 sequence (P23977 whole entry): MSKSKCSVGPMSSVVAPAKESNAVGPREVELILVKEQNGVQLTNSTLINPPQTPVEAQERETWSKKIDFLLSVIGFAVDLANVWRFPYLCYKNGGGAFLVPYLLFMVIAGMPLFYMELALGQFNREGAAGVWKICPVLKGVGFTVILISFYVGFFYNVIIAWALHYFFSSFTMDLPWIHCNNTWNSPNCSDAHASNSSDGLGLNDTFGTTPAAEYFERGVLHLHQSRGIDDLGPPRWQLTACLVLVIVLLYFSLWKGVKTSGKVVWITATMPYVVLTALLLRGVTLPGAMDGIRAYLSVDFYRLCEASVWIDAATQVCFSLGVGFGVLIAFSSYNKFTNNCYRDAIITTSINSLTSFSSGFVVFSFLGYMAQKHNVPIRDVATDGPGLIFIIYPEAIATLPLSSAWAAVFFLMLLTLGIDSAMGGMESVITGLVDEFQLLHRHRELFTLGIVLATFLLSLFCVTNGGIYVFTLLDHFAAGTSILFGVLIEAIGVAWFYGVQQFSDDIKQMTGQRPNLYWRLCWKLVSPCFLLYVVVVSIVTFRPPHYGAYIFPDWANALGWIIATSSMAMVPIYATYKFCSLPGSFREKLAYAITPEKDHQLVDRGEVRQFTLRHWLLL
T3 sequence (P35372 whole entry): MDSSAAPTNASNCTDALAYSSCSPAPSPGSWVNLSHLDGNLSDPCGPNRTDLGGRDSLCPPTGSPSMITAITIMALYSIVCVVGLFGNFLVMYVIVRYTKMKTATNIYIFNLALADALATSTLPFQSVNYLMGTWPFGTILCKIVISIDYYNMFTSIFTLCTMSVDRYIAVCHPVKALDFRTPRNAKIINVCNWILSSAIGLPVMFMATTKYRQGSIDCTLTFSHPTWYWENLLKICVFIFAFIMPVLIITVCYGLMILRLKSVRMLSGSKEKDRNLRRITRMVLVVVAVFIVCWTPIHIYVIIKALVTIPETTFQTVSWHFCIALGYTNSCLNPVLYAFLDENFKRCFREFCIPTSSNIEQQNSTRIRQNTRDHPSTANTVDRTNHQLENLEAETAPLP
T1 sequence (P41145 whole entry): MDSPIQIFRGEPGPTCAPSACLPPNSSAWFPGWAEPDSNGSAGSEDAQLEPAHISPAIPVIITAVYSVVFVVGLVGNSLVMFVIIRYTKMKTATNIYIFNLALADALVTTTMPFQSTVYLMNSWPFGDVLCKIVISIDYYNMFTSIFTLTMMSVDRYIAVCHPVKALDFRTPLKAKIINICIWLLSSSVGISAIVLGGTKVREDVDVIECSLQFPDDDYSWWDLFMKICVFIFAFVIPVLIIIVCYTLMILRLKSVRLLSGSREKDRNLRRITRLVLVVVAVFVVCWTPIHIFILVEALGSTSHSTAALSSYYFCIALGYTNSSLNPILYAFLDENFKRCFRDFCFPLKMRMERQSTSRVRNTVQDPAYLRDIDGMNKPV

CN1CCC(c2ccsc2)(C(C)(C)O)CC1 [Compound A, 4-(3-thienyl)-α,α,1-trimethyl-4-piperidinemethanol]
NOEL (mydriasis) [1]: NOEL < 2.5 mg/kg
MTD at 5 day ([1]; dog, in vivo, read-out: MTD (decreased BW)): < 20 mg/kg
activity at kappa receptor sites [2]: does not show significant activity
effect upon arousal or motor function ([3]; at doses effective in formalin and Chung models): no effect upon arousal or motor function
effect upon tactile allodynia arising from nerve injury ([3]; rat): reliable dose dependent effect
effects on tactile allodynia ([3]; rat, two hours post injection, doses 200 mg/kg and 100 mg/kg): statistically significant effects
activity in rat Tooth pulp model (Rat tooth pulp): showed activity
uptake of norepinephrine ([4]; rat brain preparations): inhibits uptake
IC50 ([4]; rat synaptosomal, read-out: NE uptake inhibition IC50): 0.223 µM
anti-inflammatory effects in vivo [5]: does not inhibit prostaglandin synthesase activity or show anti-inflammatory effects in vivo
ED50 (Rat Randall-Selitto; Rattus norvegicus): 32 mg/kg
activity in rat Randell-Selitto model (Rat Randall-Selitto; rat): Randell-Selitto^Φ
ED50 (Rat PQW; Rattus norvegicus): 7.9 mg/kg
activity in rat PQW model (Rat PQW; rat, unmarked entry of animal model table): showed activity
MTD (Safety pharmacology, dog; in vivo): 20 mg/kg
hypotension/decreased cardiac contractility, anemia, multiple of effective dose (Safety pharmacology, dog; iv-pentobarb): 10 X
emesis/anorexia BW loss, multiple of effective dose (Safety pharmacology, dog; po): 1-10 X
respiratory acidosis, multiple of effective dose (Safety pharmacology, dog; po): 10 X
activity at sigma receptor sites [6]: does not show significant activity
In Vitro Bacterial Mutagenicity: Modified Ames Test (Bacterial Mutagenicity): Not mutagenic
NOEL (exophthalamos) [7]: NOEL < 30 mg/kg
NOAEL at 14 day ([7]; rat, in vivo): 100 mg/kg
anticholinergic side effects, sedation or other signs of motor impairment [8]: not accompanied by anticholinergic side effects, sedation or other signs of motor impairment
activity at mu receptor sites [9]: does not show significant activity
inhibition of prostaglandin synthesase activity (prostaglandin synthesase): does not inhibit
Rat Tail-Flick (Rat Tail-Flick): Inactive
activity in rat Tail Flick model (Rat Tail-Flick): Tail Flick*
addictive and respiratory depressant properties [10]: lacks the addictive and respiratory depressant properties
activity in monkey Tail dip model (Monkey tail dip): showed activity
uptake of dopamine (uptake of dopamine): inhibits uptake
monkeys responding following involuntary injections ([11]; Cynomologous monkeys): two out of four monkeys
self-administration response achieved ([11]; Cynomologous monkeys trained to self-administer): one out of four monkeys
